System: adenylate cyclase
Experiment: stimulation of adenylate cyclase activity in purified fibroblast (3T3 F442A) cell membranes, AMPc measured by radioimmunoassay
Assay type: biochemical, mouse
Conditions: at 0.05 g/l, 37° C., 3T3 F442A fibroblast membranes; basal activity without effector = 100%
Procedure: Cell membranes are initially obtained by culturing to confluence fibroblasts of the 3T3 F442A line commercially available from Flow Laboratories.
These fibroblast cell membranes which constitute an enzyme source, are incubated in a reaction medium in the presence of ATP at 37° C. for a predefined length of time.
The resulting AMPc is measured by radioimmunoassay. Taking the basal activity, i.e. activity without an effector, as being 100%, it is possible to determine the influence of an effector on the enzyme system.
Cell membranes are purified from the fibroblast in culture.
In this context, it should be observed that purification of cell membranes releases numerous enzymes into the assay medium. Two of these enzymes are undesirable in implementing the test. They comprise firstly Na^+, K^+ ATPase which transform ATP into adenosine diphosphate, and secondly phosphodiesterase 3',5'-AMPc which degrades cyclic AMP into AMP. Thus, in order to obtain reliable results from the test, it is essential to inhibit those two enzymes. The first is inhibited by means of ouabain, and the second by means of theophylline.
The reaction medium is thus constituted by:
50 μl of a 5 mM solution of […] (ATP) as substrate;
100 μl of a 20 mM solution of ouabain as an inhibitor of ATPase;
100 μl of a 20 mM solution of theophylline as an inhibitor of phosphodiesterase; and […]

C=C[C@@]1(C)CC(=O)[C@]2(O)[C@@]3(C)[C@@H](O)CCC(C)(C)[C@@H]3[C@H](O)[C@H](OC(C)=O)[C@@]2(C)O1 [forskoline]
% activity (adenylate cyclase; basal activity = 100): 225%

From patent publication US5709864A, “Cosmetic or pharmaceutical and particularly dermatological, composition containing an extract of tephrosia, particularly Tephrosia purpurea” (priority 1993, dated 1998)
